Results published in patent US20230102860A1, “METHOD FOR C[…] FUNGICIDE-RESISTANT SOYBEAN RUST FUNGI” (SUMITOMO CHEMICAL COMPANY, LIMITED, priority 2020, published 2023).

Tested on: soybean rust fungus (Phakopsora pachyrhizi) having an amino acid substitution of F129L on mitochondrial cytochrome b protein
Experiment: Comparative Test Example 1: soybean leaf disk test at 50 ppm or 12.5 ppm, lesion area (Table A, Table B)
Format: in vivo
Experimental: A soybean leaf (cv; Kurosengoku) was punched out to 1 cm diameter to prepare a leaf disk. Each 1 mL of 1.2% agar medium was dispensed in 24 well microplate. A piece of the leaf disk was placed on each well. To a mixture of 0.5 μL of Sorpol (registered trademark) 1200KX, 4.5 μL of DMSO, and 5 μL of xylene was added 20 μL of a DMSO solution containing 10,000 ppm of the test compound. The resulting mixture was diluted with ion exchange water to prepare a spray solution containing a predetermined concentration of the test compound. The spray solution was sprayed in 10 μL per one leaf disk. After 1 day, an aqueous suspension of spores of soybean rust fungus (Phakopsora pachyrhizi) having an amino acid substitution of F129L on mitochondrial cytochrome b protein (1.0×10^5/mL) was inoculated onto the leaf disks. After the inoculation, the microplate was placed in a growth chamber (light on for 6 hours, light off for 18 hours, 23° C. temperature, 60% humidity). After 1 day, the leaf disks were air-dried to disappear water droplets on the surface of the leaf disk, and the microplate was placed again in the growth chamber for 10 to 14 days. Thereafter, a lesion area of soybean rust disease was assessed. […] Here the untreated means that the spray solution containing the test compound was not sprayed onto the leaf disk.
The test was conducted by using as a test compound the present compound 3, 5, 11, 59, 200, 202, 207, 214, 222, 294 or 391, or azoxystrobin, dimoxystrobin or metominostrobin, at the predetermined concentration of 50 ppm or 12.5 ppm according to a method described in the Test Example 1. The results thereof are indicated in [Table A] and [Table B].

SMILES | Lesion Area at each concentration (%) (12.5 ppm) | Lesion Area at each concentration (%) (50 ppm)
CO/C=C(/C(=O)OC)c1ccccc1/C=C/C1CC1C (stereo not shown) | 0% | 0%
CO/C=C(/C(=O)OC)c1ccccc1/C=C/C1CC1(F)F (stereo not shown) | 0% | 0%
CCc1ccc(/C(=C\OC)C(=O)OC)c(/C=C/C2CC2)c1 | 0% | 0%
CO/C=C(/C(=O)OC)c1ccc(Cl)cc1/C=C/C1CC1(C)C (stereo not shown) | 0% | 0%
CCCCC#Cc1cc(Cl)ccc1/C(=C\OC)C(=O)OC | 0% | 0%
CO/C=C(/C(=O)OC)c1ccc(Cl)cc1C#CCC(C)C | 0% | 0%
CO/C=C(/C(=O)OC)c1ccc(OC)cc1C#CCC(C)C | 0% | 0%
CO/C=C(/C(=O)OC)c1ccc(Cl)cc1C#CCC1CCCC1 | 0% | 0%
CO/C=C(/C(=O)OC)c1ccccc1COc1ccn(-c2ccc(Cl)cc2)n1 | 10% | 0%
CNC(=O)/C(=N/OC)c1ccccc1COc1ccn(-c2ccc(Cl)cc2)n1 | 10% | 0%
CO/C=C(/C(=O)OC)c1c(C)cccc1CO/N=C(\C)c1ccc(Cl)cc1 | 0% | 0%
CO/C=C(/C(=O)OC)c1ccccc1Oc1cc(Oc2ccccc2C#N)ncn1 | 100% | 100%
CNC(=O)/C(=N/OC)c1ccccc1COc1cc(C)ccc1C | 100% | 100%
CNC(=O)/C(=N/OC)c1ccccc1Oc1ccccc1 | 100% | 100%
